Like-named read-outs stand apart in the source and are kept apart here.
Tests used:
[1] = tested on: powdery mildew pathogen, Blumeria graminis f. sp. hordei; experiment: In vivo control of barley powdery mildew on barley seedlings
[2] = tested on: late blight pathogen, Phytophthora infestans; type: in vivo
[3] = tested on: gray mold pathogen, Bouytis cinerea; type: in vivo
[4] = tested on: anthracnose pathogen, Colletotrichum orbiculare; type: in vivo
[5] = tested on: powdery mildew pathogen, Sphaerotheca fidigenea; experiment: In vivo control of cucumber powdery mildew (natural infestation in greenhouse); details: for Control value (%) The 1st Exp. cucumber powdery mildew: 1st experiment; for Control value (%) The 2nd Exp. cucumber powdery mildew: 2nd experiment
Description: The culture solution was diluted with distilled water at a ratio of 1:10, 1:25, 1:50, 1:100 and 1:200. Each diluent was mixed with 250 μg/ml of Tween 20, and sprayed to leaves of the 7th leaf stage of cucumbers.
Topseed (Greenbiotech Co., Ltd.) known as a microbial fungicide for controlling powdery mildew was diluted with distilled water at a ratio of 1:10, 1:25, 1:50, 1:100 and 1:200, and each diluent and flusilazole (Dongbu Hannong Chemical Co., Ltd.) as a positive control were sprayed to cucumber plants to prepare a comparative group. The cucumbers treated with Tween 20 solution alone were employed as a control group.
1 week after spraying, each diluent of the culture solution and comparative sample was sprayed to the target cucumbers second time. 1 week after further spraying, effect on controlling powdery mildew was assessed according to the same method as described in Example 3. The cucumbers were allowed to be infested naturally from a resident powdery mildew pathogen, Sphaerotheca fidigenea in a greenhouse.

## CCCCNC(=O)n1c(NC(=O)OC)nc2ccccc21 [Benomyl, benomyl]
[1]; 1 μg/ml
  Control value (%) Barley powdery mildew: 52%
[1]; 100 μg/ml
  Control value (%) Barley powdery mildew: 100%

## N#Cc1c(Cl)c(Cl)c(Cl)c(C#N)c1Cl [Chlrothalonil, chlrothalonil]
[2]; 50 μg/ml
  Control value (%) Tomato late blight: 89%
[2]; 100 μg/ml
  Control value (%) Tomato late blight: 100%

## CN(C)S(=O)(=O)N(SC(F)(Cl)Cl)c1ccccc1 [Dichlofluanid, dichlofluanid]
[3]; 40 μg/ml
  Control value (%) Tomato gray mold: 86%
[3]; 80 μg/ml
  Control value (%) Tomato gray mold: 97%

## N#Cc1sc2c(=O)c3ccccc3c(=O)c=2sc1C#N [Dithianon, dithianon]
[4]; 10 μg/ml
  Control value (%) Cucumber anthracnose: 80%
[4]; 100 μg/ml
  Control value (%) Cucumber anthracnose: 100%

## C[Si](Cn1cncn1)(c1ccc(F)cc1)c1ccc(F)cc1 [Flusilazole, flusilazole]
[5]; 10 μg/ml
  Control value (%) The 1st Exp. cucumber powdery mildew: 97%
  Control value (%) The 2nd Exp. cucumber powdery mildew: 97%
[5]; 30 μg/ml
  Control value (%) The 1st Exp. cucumber powdery mildew: 99%
  Control value (%) The 2nd Exp. cucumber powdery mildew: 99%

— US8202514B2, “Bacillus subtilis strain having antagonistic activity for controlling plant diseases” (Korea Research Institute of Chemical Technology, priority 2004, dated 2012)
